Results from US11602496B2, “Use of gingerone or derivatives thereof for reducing or delaying the signs of skin ageing” (L'OREAL, priority 2011, dated 2023).
Marks after values point to notes of the source that are not given here.

Tested on: filaggrin expression in normal human keratinocytes (NHEKs)
Experiment: Filaggrin expression in normal human keratinocytes in culture (in situ immunolabelling, fluorescence relative to number of nuclei)
Type: cell-based
Conditions: for filaggrin expression, % relative to the control / change in expression of filaggrin by the keratinocytes relative to the control: NHEKs; for filaggrin expression, % relative to the control: 144 hours incubation, n=3, control complete SFM medium = 100; for change in expression of filaggrin by the keratinocytes relative to the control: 144 hours
Protocol: The in vitro effect of gingerone (compound 1, the chemical formula of which is given above) on keratinocyte differentiation is studied. The expression and the location of the marker of filaggrin differentiation are especially studied in keratinocytes in culture which thus makes it possible to evaluate the capacity of this compound to increase the differentiation of these cells. Normal human keratinocytes (NHEKs) were cultured at 37° C. and 5% CO2 for 24 h in a complete SFM medium until moderate confluence was obtained. A complete SFM medium is an SFM culture medium supplemented with pituitary extract (25 μg/ml), EGF (0.25 ng/ml) and gentamicin (25 μg/ml). […] The keratinocytes were then incubated for 144 hours. The treatments were carried out in triplicate (n=3). At the end of the incubation, the culture medium was removed and the cells were […], fixed, permeabilized then labelled with the primary antibody targeted against the filaggrin protein of interest (in situ immunolabelling). […] At the same time, the nuclei of the cells were stained with Hoechst 33258 (bisbenzimide). Image acquisition was carried out using an INCell AnalyzerTM1000 machine. The labels were quantified by measuring the fluorescence intensity of the proteins relative to the number of nuclei identified by the Hoechst product.

## [Ca+2].[Cl-].[Cl-] [CaCl2, calcium chloride, reference compound]
1.5 mM
  filaggrin expression, % relative to the control: 158** %
Calcium chloride treatment (1.5 mM in Table 1)
  change in expression of filaggrin by the keratinocytes relative to the control: +58%

## COc1cc(CCC(C)=O)ccc1O [Gingerone]
2 μg/ml
  change in expression of filaggrin by the keratinocytes relative to the control: +33%
  filaggrin expression, % relative to the control: 133* %
20 μg/ml
  change in expression of filaggrin by the keratinocytes relative to the control: +51%
  filaggrin expression, % relative to the control: 151* %
Normal human epidermal keratinocytes
  effect on expression of the filaggrin protein (in words): significantly and dose-dependently increases the expression of the filaggrin protein

## CC1=C(/C=C/C(C)=C/C=C/C(C)=C/C(=O)O)C(C)(C)CCC1 [Retinoic acid, retinoic acid, reference compound]
10^−7 M
  filaggrin expression, % relative to the control: 3** %
Retinoic acid treatment (10^−7 M in Table 1)
  change in expression of filaggrin by the keratinocytes relative to the control: −97%
